# Experimental data: patent US11384055B2 (BIOMARIN PHARMACEUTICAL INC., priority 2017, dated 2022)
# Biological target: T1, Human GO (Homo sapiens, UniProt Q9UJM8)
# T1 construct: purchased Novus Biologicals NBP1-72412
# T1 sequence (Q9UJM8 1-370): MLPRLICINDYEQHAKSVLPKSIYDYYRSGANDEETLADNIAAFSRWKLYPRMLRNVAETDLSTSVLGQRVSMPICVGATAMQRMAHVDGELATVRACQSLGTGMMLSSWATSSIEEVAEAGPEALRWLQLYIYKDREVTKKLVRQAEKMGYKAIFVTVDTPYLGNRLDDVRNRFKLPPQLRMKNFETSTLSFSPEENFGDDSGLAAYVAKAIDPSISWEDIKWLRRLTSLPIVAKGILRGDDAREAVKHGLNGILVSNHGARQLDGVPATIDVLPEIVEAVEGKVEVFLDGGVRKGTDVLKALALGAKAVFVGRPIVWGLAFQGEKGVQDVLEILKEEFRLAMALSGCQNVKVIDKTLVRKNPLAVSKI
# Assay: GO enzymatic assay (coupled fluorescence/HRP assay, glycolate substrate)
# Type: biochemical
# Details: Table 2; read-out: Range (range of IC50 values calculated from the enzymatic assays)
# How it was run: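 Coupled HRP/fluorescence read-out of glycolate oxidation by human GO in 50 mM potassium phosphate buffer (pH 7). Inhibitors added across a concentration range.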
row,IC50 [nM],SMILES
1,< 100,"O=C(O)c1[nH]nnc1Sc1ccc(-c2ccc(N3CCC(F)(F)CC3)cc2)cc1 [Compound 319, 4-((4′-(4,4-difluoropiperidin-1-yl)-[1,1′-biphenyl]-4-yl)thio)-1H-1,2,3-triazole-5-carboxylic acid 2,2,2-trifluoroacetate]"
2,< 100,"O=C(O)c1[nH]nnc1SC1Cc2ccc(OC(F)(F)F)cc2C1 (centres unmarked) [Compound 320, 4-((5-(trifluoromethoxy)-2,3-dihydro-1H-inden-2-yl)thio)-1H-1,2,3-triazole-5-carboxylic acid]"
3,< 100,"O=C(O)c1[nH]nnc1Sc1ccc(-c2ccc(OC(F)(F)F)cn2)cc1 [Compound 321, 4-((4-(5-(trifluoromethoxy)pyridin-2-yl)phenyl)thio)-1H-1,2,3-triazole-5-carboxylic acid 2,2,2-trifluoroacetate]"
4,< 100,"O=C(O)c1[nH]nnc1CSc1ccc(-c2ccc(Cl)c(Cl)c2)cc1 [Compound 322, 4-(((3′,4′-dichloro-[1,1′-biphenyl]-4-yl)thio)methyl)-1H-1,2,3-triazole-5-carboxylic acid 2,2,2-trifluoroacetate]"
5,< 100,"O=C(O)c1[nH]nnc1SC1CCN(c2ccc(Cl)c(Cl)c2)CC1 [Compound 323, 4-((1-(3,4-dichlorophenyl)piperidin-4-yl)thio)-1H-1,2,3-triazole-5-carboxylic acid 2,2,2-trifluoroacetate]"
6,< 100,O=C(O)c1[nH]nnc1SC1CCN(c2ccc(C(F)(F)F)cc2)CC1 [Compound 324]
7,< 100,"O=C(O)c1[nH]nnc1SC1CCN(c2cc(Cl)cc(Cl)c2)CC1 [Compound 325, 4-((1-(3,5-dichlorophenyl)piperidin-4-yl)thio)-1H-1,2,3-triazole-5-carboxylic acid 2,2,2-trifluoroacetate]"
8,< 100,"O=C(O)c1[nH]nnc1SC1CCC(c2cccc(OC(F)(F)F)c2)CC1 (centres unmarked) [Compound 326, 4-((4-(3-(trifluoromethoxy)phenyl)cyclohexyl)thio)-1H-1,2,3-triazole-5-carboxylic acid]"
9,< 100,"O=C(O)c1[nH]nnc1SC1CCC(c2cccc(C(F)(F)F)c2)CC1 (centres unmarked) [Compound 327, 4-((4-(3-(trifluoromethyl)phenyl)cyclohexyl)thio)-1H-1,2,3-triazole-5-carboxylic acid]"
10,< 100,"O=C(O)c1[nH]nnc1CSc1ccc(-c2cc(Cl)cc(Cl)c2)cc1 [Compound 328, 4-(((3′,5′-dichloro-[1,1′-biphenyl]-4-yl)thio)methyl)-1H-1,2,3-triazole-5-carboxylic acid]"
11,< 100,"O=C(O)c1[nH]nnc1CSc1ccc(-c2ccc(OC(F)(F)F)c(Cl)c2)cc1 [Compound 329, 4-(((3′-chloro-4′-(trifluoromethoxy)-[1,1′-biphenyl]-4-yl)thio)methyl)-1H-1,2,3-triazole-5-carboxylic acid]"
12,< 100,"O=C(O)c1[nH]nnc1SC1CCN(c2cc(Cl)ccc2Cl)CC1 [Compound 330, 4-((1-(2,5-dichlorophenyl)piperidin-4-yl)thio)-1H-1,2,3-triazole-5-carboxylic acid]"
13,< 100,"O=C(O)c1[nH]nnc1S[C@H]1CC[C@@H](c2cc(Cl)cc(Cl)c2)CC1 [Compound 331, 4-(((cis)-4-(3,5-dichlorophenyl)cyclohexyl)thio)-1H-1,2,3-triazole-5-carboxylic acid]"
14,< 100,"O=C(O)c1[nH]nnc1S[C@H]1CC[C@@H](c2ccc(C(F)(F)F)cc2)CC1 [Compound 332, 4-(((cis)-4-(4-(trifluoromethyl)phenyl)cyclohexyl)thio)-1H-1,2,3-triazole-5-carboxylic acid]"
15,< 100,"CN(Cc1nn[nH]c1C(=O)O)c1ccc(-c2ccc(OC(F)(F)F)cc2)cc1 [Compound 333, 4-((methyl(4′-(trifluoromethoxy)-[1,1′-biphenyl]-4-yl)amino)methyl)-1H-1,2,3-triazole-5-carboxylic acid 2,2,2-trifluoroacetate]"
16,< 100,"O=C(O)c1[nH]nnc1-c1cc(OCC2CC2)cc(C(F)(F)F)c1 [Compound 334, 4-(3-(cyclopropylmethoxy)-5-(trifluoromethyl)phenyl)-1H-1,2,3-triazole-5-carboxylic acid]"
17,1000 to 10000,"O=C(O)c1[nH]nnc1[S+]([O-])c1ccc(Cl)c(OCC2CCCCC2)c1 (centres unmarked) [Compound 335, 4-((4-chloro-3-(cyclohexylmethoxy)phenyl)sulfinyl)-1H-1,2,3-triazole-5-carboxylic acid]"
18,< 100,"O=C(O)c1[nH]nnc1Sc1ccc(Cl)c(OCC2CCCCC2)c1 [Compound 336, 4-((4-chloro-3-(cyclohexylmethoxy)phenyl)thio)-1H-1,2,3-triazole-5-carboxylic acid]"

row,IC50 [nM],SMILES
1,< 100,"O=C(O)c1[nH]nnc1S[C@H]1CC[C@@H](c2cc(Cl)cc(OC(F)(F)F)c2)CC1 [Compound 337, 4-(((cis)-4-(3-chloro-5-(trifluoromethoxy)phenyl)cyclohexyl)thio)-1H-1,2,3-triazole-5-carboxylic acid]"
2,< 100,"O=C(O)c1[nH]nnc1SC1CCN(c2cc(Cl)cc(OC(F)(F)F)c2)CC1 [Compound 338, 4-((1-(3-chloro-5-(trifluoromethoxy)phenyl)piperidin-4-yl)thio)-1H-1,2,3-triazole-5-carboxylic acid]"
3,< 100,"O=C(O)c1[nH]nnc1Sc1ccc(N2CCC(F)(F)CC2)cc1 [Compound 339, 4-((4-(4,4-difluoropiperidin-1-yl)phenyl)thio)-1H-1,2,3-triazole-5-carboxylic acid 2,2,2-trifluoroacetate]"
4,< 100,"O=C(O)c1[nH]nnc1SC1CCC(c2cccc(N3CCCCC3)c2)CC1 (centres unmarked) [Compound 340, 4-((4-(3-(piperidin-1-yl)phenyl)cyclohexyl)thio)-1H-1,2,3-triazole-5-carboxylic acid 2,2,2-trifluoroacetate]"
5,< 100,"CN1CCN(c2ccc([C@H]3CC[C@@H](Sc4nn[nH]c4C(=O)O)CC3)cc2)CC1 [Compound 341, 4-(((cis)4-(4-(4-methylpiperazin-1-yl)phenyl)cyclohexyl)thio)-1H-1,2,3-triazole-5-carboxylic acid 2,2,2-trifluoroacetate]"
6,< 100,"O=C(O)c1[nH]nnc1Sc1ccc(-c2ccc(N3CCCCC3)cc2)c(Cl)c1 [Compound 342, 4-((2-chloro-4′-(piperidin-1-yl)-[1,1′-biphenyl]-4-yl)thio)-1H-1,2,3-triazole-5-carboxylic acid 2,2,2-trifluoroacetate]"
7,< 100,"O=C(O)c1[nH]nnc1Sc1cc(OCC2CCCC2)ccc1Cl [Compound 343, 4-((2-chloro-5-(cyclopentylmethoxy)phenyl)thio)-1H-1,2,3-triazole-5-carboxylic acid]"
8,< 100,"N#Cc1ccc(N2CCC(Sc3nn[nH]c3C(=O)O)CC2)cc1 [Compound 344, 4-((1-(4-cyanophenyl)piperidin-4-yl)thio)-1H-1,2,3-triazole-5-carboxylic acid 2,2,2-trifluoroacetate]"
9,< 100,"O=C(O)c1[nH]nnc1S[C@H]1CC[C@@H](c2ccc(Cl)c(Cl)c2)CC1 [Compound 345, 4-(((cis)-4-(3,4-dichlorophenyl)cyclohexyl)thio)-1H-1,2,3-triazole-5-carboxylic acid 2,2,2-trifluoroacetate]"
10,< 100,"O=C(O)c1[nH]nnc1SC1CCN(c2ccc(OC(F)(F)F)c(Cl)c2)CC1 [Compound 346, 4-((1-(3-chloro-4-(trifluoromethoxy)phenyl)piperidin-4-yl)thio)-1H-1,2,3-triazole-5-carboxylic acid]"
11,< 100,"O=C(O)c1[nH]nnc1S[C@H]1CC[C@@H](c2ccc(N3CCCC3)cc2)CC1 [Compound 347, 4-(((cis)-4-(4-(pyrrolidin-1-yl)phenyl)cyclohexyl)thio)-1H-1,2,3-triazole-5-carboxylic acid 2,2,2-trifluoroacetate]"
12,< 100,"O=C(O)c1[nH]nnc1S[C@H]1CC[C@@H](c2ccc(OC(F)(F)F)cc2)CC1 [Compound 348, 4-(((cis)-4-(4-(trifluoromethoxy)phenyl)cyclohexyl)thio)-1H-1,2,3-triazole-5-carboxylic acid]"
13,< 100,"CC1CCCCN1c1ccc(-c2ccc(Sc3nn[nH]c3C(=O)O)cc2)cc1 (centres unmarked) [Compound 349, 4-((4′-(2-methylpiperidin-1-yl)-[1,1′-biphenyl]-4-yl)thio)-1H-1,2,3-triazole-5-carboxylic acid 2,2,2-trifluoroacetate]"
14,< 100,"O=C(O)c1[nH]nnc1CSC1CCN(c2cc(Cl)cc(Cl)c2)CC1 [Compound 350, 4-(((1-(3,5-dichlorophenyl)piperidin-4-yl)thio)methyl)-1H-1,2,3-triazole-5-carboxylic acid 2,2,2-trifluoroacetate]"
15,100 to 1000,"O=C(O)c1[nH]nnc1Sc1cccc(OC2CCCC2)c1 [Compound 351, 4-((3-(cyclopentyloxy)phenyl)thio)-1H-1,2,3-triazole-5-carboxylic acid 2,2,2-trifluoroacetate]"
16,< 100,"N#Cc1ccc([C@H]2CC[C@@H](Sc3nn[nH]c3C(=O)O)CC2)cc1 [Compound 352, 4-(((cis)-4-(4-cyanophenyl)cyclohexyl)thio)-1H-1,2,3-triazole-5-carboxylic acid]"
17,< 100,"O=C(O)c1[nH]nnc1Oc1ccc(Cl)c(OCC2CCCC2)c1 [Compound 353, 4-(4-chloro-3-(cyclopentylmethoxy)phenoxy)-1H-1,2,3-triazole-5-carboxylic acid 2,2,2-trifluoroacetate]"
